# Key:
# Assay type in all cases: in vivo
# [1] = system: barnyardgrass (Echinochloa crus-galli L.): ECHCG; test: Test Example 1 pre-emergence herbicidal activity, ECHCG; conditions: Rate 63 g a.i./ha, visually observed 20th to 23rd day after application
# Procedure, shortened: (§1)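 Scoring was visual growth control (0 = untreated, 100 = complete kill) on days 20–23 post-application. Treatment came as a pre-emergence spray one day after sowing in upland soil, using wettable powder or emulsifiable concentrate diluted in 500 L/ha water at predetermined active-ingredient amounts.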
# [2] = system: crabgrass (Digitaria sanguinalis L.): DIGSA; test: Test Example 1 pre-emergence herbicidal activity, DIGSA; conditions: Rate 63 g a.i./ha, visually observed 20th to 23rd day after application
# Procedure, shortened: as §1
# [3] = system: green foxtail (Setaria viridis L.): SETVI; test: Test Example 1 pre-emergence herbicidal activity, SETVI; conditions: Rate 63 g a.i./ha, visually observed 20th to 23rd day after application
# Procedure, shortened: as §1
# [4] = system: redroot pigweed (Amaranthus retroflexus L.): AMARE; test: Test Example 1 pre-emergence herbicidal activity, AMARE; conditions: Rate 63 g a.i./ha, visually observed 20th to 23rd day after application
# Procedure, shortened: as §1
# [5] = system: prickly sida (Sida spinosa L.): SEDSP; test: Test Example 1 pre-emergence herbicidal activity, SIDSP; conditions: Rate 63 g a.i./ha, visually observed 20th to 23rd day after application
# Procedure, shortened: as §1
# [6] = system: velvetleaf (Abutilon theophrasti): ABUTH; test: Test Example 1 pre-emergence herbicidal activity, ABUTH; conditions: Rate 63 g a.i./ha, visually observed 20th to 23rd day after application
# Procedure, shortened: as §1
# [7] = system: rice (Oryza sativa L.): ORYSA; test: Test Example 1 pre-emergence herbicidal activity, ORYSA; conditions: Rate 63 g a.i./ha, visually observed 20th to 23rd day after application
# Procedure, shortened: as §1
# [8] = system: wheat (Triticum aestivum L.): TRZAX; test: Test Example 1 pre-emergence herbicidal activity, TRZAX; conditions: Rate 63 g a.i./ha, visually observed 20th to 23rd day after application
# Procedure, shortened: as §1
# [9] = system: corn (Zea mays L.): ZEAMX; test: Test Example 1 pre-emergence herbicidal activity, ZEAMX; conditions: Rate 63 g a.i./ha, visually observed 20th to 23rd day after application
# Procedure, shortened: as §1
# [10] = system: soybean (Glycine max Merr.): GLXMA; test: Test Example 1 pre-emergence herbicidal activity, GLXMA; conditions: Rate 63 g a.i./ha, visually observed 20th to 23rd day after application
# Procedure, shortened: as §1
# [11] = system: barnyardgrass (Echinochloa crus-galli L.), ECHCG; test: Test Example 2 post-emergence (foliage treatment) herbicidal activity, ECHCG; conditions: 63 g a.i./ha
# Procedure, shortened: (§2)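 Visual rating of growth control, from 0 (untreated-like) to 100 (complete kill), was done 20–23 days after post-emergence spraying. Wettable powder or emulsifiable concentrate was diluted to 500 L/ha with 0.1% (v/v) spreader. Leaf stages at application were 1.1-2.1 (ECHCG), 1.0-2.0 (DIGSA), 0.1-1.5 (AMARE) and 1.0-2 (ORYSA).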
# [12] = system: green foxtail (Setaria viridis L.), SETVI; test: Test Example 2 post-emergence (foliage treatment) herbicidal activity, SETVI; conditions: 63 g a.i./ha
# Procedure, shortened: (§3)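 Foliar spray of formulated compound (500 L/ha dilution water, 0.1% v/v spreader) onto young potted plants at defined leaf stages. Scored 0-100% by visual inspection 20-23 d post-spray.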
# [13] = system: prickly sida (Sida spinosa L.), SIDSP; test: Test Example 2 post-emergence (foliage treatment) herbicidal activity, SIDSP; conditions: 63 g a.i./ha
# Procedure, shortened: as §3
# [14] = system: velvetleaf (Abutilon theophrasti), ABUTH; test: Test Example 2 post-emergence (foliage treatment) herbicidal activity, ABUTH; conditions: 63 g a.i./ha
# Procedure, shortened: as §3
# [15] = system: rice (Oryza sativa L.), ORYSA; test: Test Example 2 post-emergence (foliage treatment) herbicidal activity, ORYSA; conditions: 63 g a.i./ha
# Procedure, shortened: as §2
# [16] = system: wheat (Triticum aestivum L.), TRZAX; test: Test Example 2 post-emergence (foliage treatment) herbicidal activity, TRZAX; conditions: 63 g a.i./ha
# Procedure, shortened: as §3
# [17] = system: corn (Zea mays L.), ZEAMX; test: Test Example 2 post-emergence (foliage treatment) herbicidal activity, ZEAMX; conditions: 63 g a.i./ha
# Procedure, shortened: as §3
# [18] = system: soybean (Glycine max Merr.), GLXMA; test: Test Example 2 post-emergence (foliage treatment) herbicidal activity, GLXMA; conditions: 63 g a.i./ha
# Procedure, shortened: as §3
# [19] = system: barnyardgrass (Echinochiloa oryzicola: ECHOR); test: Test Example 3 water application herbicidal activity (paddy), ECHOR; conditions: 63 g a.i./ha, water application under submerged condition at 0.5 leaf stage, visually observed 14th day after application; 0 = untreated control, 100 = complete kill
# Description: (§4) Paddy field soil was put into a 1/1,000,000 ha pot and seeds of barnyardgrass (Echinochiloa oryzicola: ECHOR) and japanese bulrush (Scirpus juncoides: SCPJO) were sown and slightly covered with soil. Then the pot was left to stand still in a greenhouse in a state where the depth of flooding water was from 0.5 to 1 cm, and one day later, tubers of japanese ribbon wapato (Sagittaria pygmaea: SA GPY) were planted. Thereafter, the depth of flooding water was maintained at a level of from 3 to 4 cm, and when barnyardgrass and japanese bulrush reached a 0.5 leaf stage, an aqueous diluted solution of a wettable powder or emulsifiable concentrate having the compound of the present invention formulated in accordance with a usual formulation method, was uniformly applied under submerged condition by a pipette so that the dose of the active ingredient would be at a predetermined level. On the other hand, paddy filed soil was put into a 1/1,000,000 ha pot and puddled and leveled, and the depth of flooding water was from 3 to 4 cm. One day later, rice (Oryza sativa L.: ORYSA) of 2 leaf stage was transplanted in a depth of 3 cm. On the 4th day after the transplantation, the compound of the present invention was applied in the same manner as described above. On the 14th day after the application of the herbicide, the growth of barnyardgrass, japanese burlush and japanese ribbon wapato was visually observed and on the 21st day after the application of the herbicide, the growth of rice was visually observed, and the herbicidal effects were evaluated by growth controlling degrees (%) ranging from 0 (equivalent to the untreated control) to 100 (complete kill), whereby the results shown in Table 6, were obtained. Compound Nos. in Table 6 correspond to Compound Nos. in Table 1 and 2 given hereinbefore.
# [20] = system: japanese bulrush (Scirpus juncoides: SCPJO); test: Test Example 3 water application herbicidal activity (paddy), SCPJO; conditions: 63 g a.i./ha, water application under submerged condition at 0.5 leaf stage, visually observed 14th day after application; 0 = untreated control, 100 = complete kill
# Description: as §4
# [21] = system: japanese ribbon wapato (Sagittaria pygmaea: SA GPY); test: Test Example 3 water application herbicidal activity (paddy), SAGPY; conditions: 63 g a.i./ha, water application under submerged condition, tubers planted, visually observed 14th day after application; 0 = untreated control, 100 = complete kill
# Description: as §4
# [22] = system: crabgrass (Digitaria sanguinalis L.), DIGSA; test: Test Example 2 post-emergence (foliage treatment) herbicidal activity, DIGSA; conditions: 63 g a.i./ha
# Procedure, shortened: as §2
# [23] = system: redroot pigweed (Amaranthus retroflexus L.), AMARE; test: Test Example 2 post-emergence (foliage treatment) herbicidal activity, AMARE; conditions: 63 g a.i./ha
# Procedure, shortened: as §2
SMILES,Pre-emergence Herbicidal Activity ECHCG (growth controlling degree) [1] [%],Pre-emergence Herbicidal Activity DIGSP (growth controlling degree) [2] [%],Pre-emergence Herbicidal Activity SETVI (growth controlling degree) [3] [%],Pre-emergence Herbicidal Activity AMARE (growth controlling degree) [4] [%],Pre-emergence Herbicidal Activity SIDSP (growth controlling degree) [5] [%],Pre-emergence Herbicidal Activity ABUTH (growth controlling degree) [6] [%],Pre-emergence Herbicidal Activity ORYSA (growth controlling degree) [7] [%],Pre-emergence Herbicidal Activity TRZAX (growth controlling degree) [8] [%],Pre-emergence Herbicidal Activity ZEAMX (growth controlling degree) [9] [%],Pre-emergence Herbicidal Activity GLXMA (growth controlling degree) [10] [%],"growth controlling degree, ECHCO [11] [%]","growth controlling degree, SIDSP [13] [%]","growth controlling degree, ABUTH [14] [%]","growth controlling degree, ORYSA [15] [%]","growth controlling degree, TRZAX [16] [%]","growth controlling degree, ZEAMX [17] [%]","growth controlling degree, GLXMA [18] [%]",growth controlling degrees (%) ECHOR [19] [%],growth controlling degrees (%) SCPJO [20] [%],growth controlling degrees (%) SAGPY [21] [%],also measured
COc1c(Cl)cc(F)c(-c2nn(C)c(OC(F)F)c2Cl)c1NC(=O)OCCCl [Compound 1-68],95,100,100,100,100,100,40,40,10,0,70,100,100,60,20,50,60,100,95,80,"growth controlling degree, SETVI [12]: 100%"
COc1c(Cl)cc(F)c(-c2nn(C)c(OC(F)F)c2Cl)c1NC(=O)OCCN(C)C [Compound 1-66],0,20,10,,20,20,0,0,0,0,20,100,100,50,20,40,60,90,30,0,"growth controlling degree, DIGSP [22]: 40%; growth controlling degree, SETVI [12]: 60%"
COc1c(Cl)cc(F)c(-c2nn(C)c(OC(F)F)c2Cl)c1NC(=O)Oc1ccccc1 [Compound 1-67],50,100,100,100,80,70,40,10,0,0,70,100,100,60,30,30,70,100,100,100,"growth controlling degree, DIGSP [22]: 70%; growth controlling degree, AMARE [23]: 100%"
CCCOC(=O)Nc1c(OC)c(Cl)cc(F)c1-c1nn(C)c(OC(F)F)c1Cl [Compound 1-72],98,100,100,100,100,100,40,40,10,0,80,100,100,60,20,40,70,100,60,100,"growth controlling degree, DIGSP [22]: 80%; growth controlling degree, AMARE [23]: 100%"
COc1c(Cl)cc(F)c(-c2nn(C)c(OC(F)F)c2Cl)c1NC(=O)OCc1cccnc1 [Compound 1-70],90,80,70,100,100,100,40,0,0,0,80,100,100,95,30,80,80,100,80,100,"growth controlling degree, DIGSP [22]: 60%; growth controlling degree, AMARE [23]: 100%"
COc1c(Cl)cc(F)c(-c2nn(C)c(OC(F)F)c2Cl)c1NC(=O)OCc1ccccc1 [Compound 1-71],98,100,100,100,100,100,60,30,30,10,100,100,100,80,60,70,80,100,70,100,

# Reference: patent publication US20050245399A1, “Pyrazole derivatives as herbicidal compositions containing them” (ISHIHARA SANGYO KAISHA, LTD., priority 2004, published 2005)
